In EP0097468A2, “Thio-naphthotriazoles, methods for producing them and their use in treating allergic diseases” (BEECHAM GROUP PLC, priority 1982, dated 1984):

Test system: rat PCA
Test: Passive cutaneous anaphylaxis (PCA) in rats
Format: in vivo
Settings: iv, PBS with NaHCO3, time 0 mins before antigen challenge
Description: Serum containing heat labile homocytotropic antibody was raised in rats to crystallised ovalbumin (Grade 3 Sigma) by the Method of I.Mota (Immunology 7, 681 (1964)) using Bordetella pertussis vaccine ([…] Burroughs Welcome) as adjuvant.
Passive cutaneous anaphylaxis (PCA) was carried out by a method based on that of Ovary and Bier, (Proc. Soc. Exp. Bio. Med., 81, 584 (1952)) as modified by Goose and Blair (Immunology, 16, 749 (1969)) Male Sprague Dawley rats 230-340 gm were given 0.1 ml of each of six two fold serial dilutions of pooled antiserum in 0.9% saline (Polyfusor Boots) injected intradermally into separate sites on their shaved backs. 72 hours later the rats were challenged by intravenous injection of 0.3 ml of a 1% solution of ovalbumin in isotonic saline buffered with 0.05M, pH 7.2 Sorenson'Buffer (Bactohaemagglutination buffer Difco Laboratories), mixed with 0,2 ml of a 5% solution of Pontamine Sky Blue (6 BX C.l. 24410 Raymond A Lamb) in isotonic saline. The rats were killed after 20 minutes and the diameter of the blue wheals at the antibody injection sites was measured on the outer surface of the skin. The starting dilution of the serum was adjusted so that there was no response, after challenge, at the injection site of the highest dilution and a maximum response at the lowest dilutions. Typically, six twofold serial dilutions of the serum from 1/4 to 1/128 were used.
Compounds were tested for their ability to reduce the diameter of the wheals at those intradermal sites which in control animals gave less than maximum response. Each dose of the compounds was administered to six rats at a measured time prior to intravenous challenge with ovalbumin. Control groups of six rats were given the same volume (0.2 ml: 100g-^1) of carrier fluid at the same time prior to the challenge.
The results were calculated as follows: % inhibition of PCA = 100 (1 - a/b) where a = the sum of the diameters of the wheals produced in the test animal at the sites of antibody dilutions as used in control groups and b = the mean sum of the diameters of the wheals produced in the control group of animals at those antibody sites where at least five out of six of the animals gave less than maximum response. A typical variation in the control group of animals was SEM± 6%.

Q: Which results are given for `CSc1cccc2c1C(=O)c1nn[nH]c1C2=O` [Example 1, 4,9-Dihydro-4,9-dioxo-5-methylthio-lH-naphtho [2,-3-d]-v-triazole]?
A: inhibition in vivo at 0.25 mg/kg: 23%; inhibition in vivo at 0.5 mg/kg: 35%; inhibition in vivo at 1 mg/kg: 68%

Q: For `CCSc1cccc2c1C(=O)c1nn[nH]c1C2=O` [Example 2, 4,9-Dihydro-4,9-dioxo-5-ethylthio-1H-naphtho[2,3-d]-v-triazole], which inhibition in vivo at 0.125 mg/kg is on record?
A: 31%

Q: What about the inhibition in vivo at 0.25 mg/kg of the same compound?
A: 27%

Q: What about the inhibition in vivo at 0.5 mg/kg of the same compound?
A: 40%

Q: How did the inhibition in vivo at 0.0625 mg/kg (0.0625 mg/kg) turn out when `C[S+]([O-])c1cccc2c1C(=O)c1nn[nH]c1C2=O` (stereo not shown) [Example 3, 4,9-Dihydro-4,9-dioxo-5-methylsulphinyl-lH-naphtho-[2,3-d]-v-triazole] was run?
A: 35%

Q: And the inhibition in vivo at 0.125 mg/kg?
A: 56%

Q: What about the inhibition in vivo at 0.25 mg/kg of the same compound?
A: 79%

Q: And the inhibition in vivo at 0.5 mg/kg?
A: 84%

Q: Which inhibition in vivo at 1 mg/kg does the source give for `CS(=O)(=O)c1cccc2c1C(=O)c1nn[nH]c1C2=O` [Example 4, 4,9-Dihydro-4,9-dioxo-5-methylsulphonyl-lH-naphtho-[2,3-d]-v-triazole] here?
A: 44%

Q: And the inhibition in vivo at 10 mg/kg?
A: 88%

Q: For `CC[S+]([O-])c1cccc2c1C(=O)c1nn[nH]c1C2=O` (stereo not shown) [Example 5, 4,9-dihydro-4,9-dioxo-5-ethysulphinyl-1H-naphtho[2,3-d]-v-triazole], which inhibition in vivo at 0.1 mg/kg is on record?
A: 65%

Q: What about the inhibition in vivo at 0.5 mg/kg of the same compound?
A: 39%

Q: `CCS(=O)(=O)c1cccc2c1C(=O)c1nn[nH]c1C2=O` [Example 6, 4,9-Dihydro-4,9-dioxo-5-ethylsulphonyl-lH-naphtho[2,3-dl-v-triazole] was tested. Which inhibition in vivo at 1 mg/kg did it give?
A: 39%

Q: What about the inhibition in vivo at 10 mg/kg of the same compound?
A: 82%

Q: Which inhibition in vivo at 0.5 mg/kg does the source give for `CCCSc1cccc2c1C(=O)c1nn[nH]c1C2=O` [Example 7, 4,9-Dihyciro-4,9-dioxo-5-propylthio-1H-naphtho[2,3-d]-y-triazole] here?
A: 68%

Q: What about the inhibition in vivo at 5 mg/kg of the same compound?
A: 88%

Q: `CCC[S+]([O-])c1cccc2c1C(=O)c1nn[nH]c1C2=O` (stereo not shown) [Example 8, 4,9-Dihydro-4,9-dioxo-5-propylsulphinyl-1H-naphtho[2,3-d] -v-triazole] was tested. Which inhibition in vivo at 0.1 mg/kg did it give?
A: 74%

Q: What about the inhibition in vivo at 0.5 mg/kg of the same compound?
A: 88%

Q: Which inhibition in vivo at 1 mg/kg does the source give for `CCCS(=O)(=O)c1cccc2c1C(=O)c1nn[nH]c1C2=O` [Example 9, 4,9-Dihydro-4,9-dioxo-5-propylsulphonyl-1H-naphtho[2,3-d] -v-triazole] here?
A: 51%

Q: And the inhibition in vivo at 10 mg/kg?
A: 87%

Q: What does the source list for `CSc1c(C)c(C)cc2c1C(=O)c1nn[nH]c1C2=O` [Example 10, 6,7-Dimethyl-4,9-dihydro-4,9-dioxo-5-methylthio-1H-naphtho[2,3-d]-v-triazole]?
A: inhibition in vivo at 0.5 mg/kg: 71%; inhibition in vivo at 5 mg/kg: 94%

Q: What does the source list for `Cc1cc2c(c([S+](C)[O-])c1C)C(=O)c1nn[nH]c1C2=O` (stereo not shown) [Example 11, 6,7-Dimethyl-4,9-dihydro-4,9-dioxo-5-methylsulphinyl-1H-naphtho [2,3-d]-v-triazole]?
A: inhibition in vivo at 0.1 mg/kg: 50%; inhibition in vivo at 0.5 mg/kg: 88%

Q: What does the source list for `Cc1cc2c(c(S(C)(=O)=O)c1C)C(=O)c1nn[nH]c1C2=O` [Example 12, 6,7-Dimethyl-4,9-dihydro-4,9-dioxo-5-methylsulphonyl-1H-na^phtho [2,3-d]-v-triazole]?
A: inhibition in vivo at 1 mg/kg: 92%; inhibition in vivo at 10 mg/kg: 92%
